Here are results for six compounds from ChEMBL document CHEMBL5584284, “Advancing Neurological Therapies: Integrating Novel Compounds and Clinical Trials for Enhanced Cognitive and Neuronal Health” (ACS Med Chem Lett, 2024).

Type in all cases: functional, cell-based
Experiment [1] deals with Cortical neurone. Put plainly: Neuroplasticity effect in Wistar rat cortical neurons assessed as increase in neurite number at <= 10 uM incubated for 72 […].
The subject of experiment [2] is Cortical neurone. The experiment in a line: Neuroplasticity effect in Wistar rat cortical neurons assessed as increase in neurite length at <= 10 uM incubated for 72 […].
The subject of experiment [3] is Cortical neurone. Put plainly: Neuroplasticity effect in Wistar rat cortical neurons assessed as increase in neurite branching at <= 10 uM incubated for 72 […].

The source made the active and inactive calls. The rule behind the calls is not given here.

In the case of `CN1CCC2Nc3cc(OCc4ccc(F)cc4)ccc3C2CC1` (stereo not drawn), the result in the experiment with Cortical neurone [1], in the experiment on Cortical neurone [2] and in the experiment on Cortical neurone [3] was Active.

Take `Fc1ccc(Oc2ccc3c(c2)NC2CCNCCC32)cc1` (stereo not drawn): the outcome in the experiment on Cortical neurone [1], in the experiment with Cortical neurone [2] and with Cortical neurone [3] was Active.

With `CN1CCC2Nc3cc(OCc4ccccc4)ccc3C2CC1` (stereo not drawn), the outcome in the experiment on Cortical neurone [1] and in the experiment on Cortical neurone [2] was Active. The outcome with Cortical neurone [3] was inactive.

`CN1CCC2c3ccc(Oc4ccccc4)cc3N(C)C2CC1` (stereo not drawn): the result with Cortical neurone [1] and in the experiment on Cortical neurone [3] was inactive. For the same compound, the outcome in the experiment with Cortical neurone [2] was Active.

For `CN1CCC2Nc3cc(Oc4ccccc4)ccc3C2CC1` (stereo not drawn), the outcome in the experiment with Cortical neurone [1], in the experiment with Cortical neurone [2] and in the experiment with Cortical neurone [3] was Active.

Consider `c1ccc(COc2ccc3c(c2)NC2CCNCCC32)cc1` (stereo not drawn), for which the result with Cortical neurone [1], in the experiment on Cortical neurone [2] and with Cortical neurone [3] was Active.
